The values that follow come from article PMC10517462, “Small molecule targeting of the p38/Mk2 stress signaling pathways to improve cancer treatment” (BMC Cancer, 2023).

For assay [1], the system named is NCI-H69 cells. Put plainly: FACS-based (DRAQ7) viability assay. It is filed as cell-based, human. How it is done:
[…] Etoposide, SB203580 and MK2.III were all dissolved in 0.2% of DMSO before use. Cells treated only with the carrier molecule DMSO (0.2%) served as a control.
Viability analysis was performed by staining with the […], stoichiometric DNA stain DRAQ7 (640 or 633 nm excitation and 670 nm emission; Biostatus Limited). After 48-h treatment with DNA damaging agents and/or inhibitors, cells were washed once with RPMI 1640 and resuspended in 1 ml culture media at a concentration of less than 5 × 10^5/ ml. Cells were stained with 20 µM of DRAQ7 and incubated at 37 °C for 10 min before FACS Calibur cytometer analysis. Fluorescent signals were amplified using linear mode. Cell cycle analysis was performed either by staining DRAQ7 or Propidium Iodide (PI). Cells were stained with 20 µM of DRAQ7 and incubated at 37 °C for 10 min before analysis on a FACSCalibur cytometer. Propidium Iodide (PI, excited with 488 nm laser, collected with 585/52 bandpass filter) was used in the large-scale experiments. Samples were then fixed with 70% EtOH following the viability assay and stored at 4 °C overnight before the experiment. After fixation with 70% EtOH (added drop-wise) for 24 h, samples were centrifuged into the pellet and then washed twice with ice-cold PBS. The supernatant was discarded and pellets were resuspended in 100 µl of RNase A (100 µg/ml) and 400 µl of PI ([…] in PBS). Analysis of flow cytometry data was performed using FlowJo software. Untreated, unstained cells were used as a negative control to determine the location of viable cells on the dot plots. Events below a threshold size were interpreted as cellular debris and were removed from the dataset, leaving a whole cell population.

The next assay has as its system NCI-H69 xenograft. Put plainly: Tumor (xenograft) suppression with combination chemotherapy in SCID mice. It is filed as in vivo. As to conditions: for Tumor Volume (mm^3) median (25th and 75th quartile): VP-16 12 mg/kg. How it is done:
To establish the most suitable xenograft model for the main experiment we used two mouse lines – BALB/c Nude and SCID (both female, 6 weeks, n = 20, Charles River). Both mouse lines were injected with NCI-H69 cancer cells (xenograft). Before injection, cells were grown at 37 °C in RPMI-1640 medium containing 10% FBS and pen/strep. Cells were mixed with Matrigel (1:1) and depending on the group 5 × 10^6 or 10 × 10^6 cells were injected into a mouse subcutaneously along the spine to the level of the left scapula. Mice were divided into 4 groups: (1) 5 × 10^6 NCI-H69 SCID (n = 5); (2) 5 × 10^6 NCI-H69 Nude (n = 5); (3) 10 × 10^6 NCI-H69 SCID (n = 5); and (4) 10 × 10^6 NCI-H69 Nude (n = 5).
The main experiment (injection of the drugs) took place after the tumor growth was established. The tumor growth in mice following the injection of cells was monitored twice a week and upon reaching the volume of ~ 100 mm^3, animals were randomized into 5 groups (12 female SCID mice in each group). The drug treatment was performed as follows: the first group was a control and received a placebo in the form of PBS (tumor volume 95 ± 38 mm^3); the second group received 12 mg/kg of Etoposide (tumor volume 101 ± 51 mm^3); the third group was injected with 4 mg/kg of MK2.III (tumor volume 105 ± 44 mm^3); fourth and fifth groups were injected with 12 mg/kg of Etoposide and 4 mg/kg or 2 mg/kg of MK2.III (tumor volumes 112 ± 57 and 107 ± 49 mm^3 respectively). Drugs were injected intraperitoneally daily. Etoposide was injected 3 days after the randomization into groups and MK2.III was administered for 28 days. Tumor growth/suppression was measured using calipers every 3–4 days for the duration of the 28-day treatment and the tumor volume was calculated as follows:[…],
Antitumor properties of drugs in the test group were determined based on the slowing of the tumor growth or tumor volume compared with the control group receiving PBS. Animal welfare was monitored throughout the study period to ensure that animals in distress were euthanized by carbon dioxide asphyxiation. All the animals were also euthanized by carbon dioxide asphyxiation following the completion of the study.
Descriptive statistics were used to summarize the tumor size and data reported as medians and 25th and 75th quartiles. Wilcoxon sum rank test was used to investigate the effects of the treatments on tumor growth. […] Statistical analyses were performed on the SigmaPlot 11.0 software.

Assay [2] has as its system NCI-H69 cells. Put plainly: FACS-based cell cycle analysis. Further details: species or system human. As to conditions: single treatment, increasing dose. The protocol:
The cells were grown in 12 well plates (Scientific Laboratory Supplies Limited, UK) in RPMI 1640 (Gibco, UK) supplemented with 10% FBS (Autogen Bioclear, UK) and 10,000 U/ml penicillin and 10 mg/ml streptomycin (Sigma, UK) at 37 °C under 5% CO2 and treated with 10, 20, 50, 100 and 150 µM of DNA damaging agent etoposide (VP-16) (Sigma, UK) in the presence or absence of p38MAPK inhibitor SB203580 (Tocris Chemical Co., UK) or MK2 inhibitor MK2.III (Merck, UK) in concentrations of 0, 0.3125, 0.625, 1.25, 2.5, and 5.0 µM. Etoposide, SB203580 and MK2.III were all dissolved in 0.2% of DMSO before use. Cells treated only with the carrier molecule DMSO (0.2%) served as a control.
Viability analysis was performed by staining with the […], stoichiometric DNA stain DRAQ7 (640 or 633 nm excitation and 670 nm emission; Biostatus Limited). After 48-h treatment with DNA damaging agents and/or inhibitors, cells were washed once with RPMI 1640 and resuspended in 1 ml culture media at a concentration of less than 5 × 10^5/ ml. Cells were stained with 20 µM of DRAQ7 and incubated at 37 °C for 10 min before FACS Calibur cytometer analysis. Fluorescent signals were amplified using linear mode. Cell cycle analysis was performed either by staining DRAQ7 or Propidium Iodide (PI). Cells were stained with 20 µM of DRAQ7 and incubated at 37 °C for 10 min before analysis on a FACSCalibur cytometer. […]

Assay [3] has as its system SW620 colorectal cancer cell line. Put plainly: CCK8 cell viability assay, SW620. The following applies: MK2.III 1 µM or etoposide 150 µM alone, 24 h. It is filed as cell-based, human. The protocol:
(§1) To assess the effect of MK2.III kinase inhibitor and the etoposide (VP-16) on the viability of different cancer cell lines, cells were seeded in 96-well plates in a concentration of 5000 cells per well. After 12 h, etoposide and 1 μM MK2.III diluted in culture media were added into the wells for 24 h. NCI-H69 cells were exposed to a series of etoposide concentrations from 20 μM to 150 μM. MDA-MB-231, SW 620, and SW 480 cell lines were incubated with 150 μM etoposide. After treatment, 10 μL of the CCK-8 reagent (96992, Sigma) was added to each well for 1 h followed by optical density measurement at 450 nm using hybrid plate reader Synergy H1.
For orientation: Tetrazolium dyes change colour on reduction, which living cells bring about.

Assay [4] relates to MDA-MB-231 breast cancer cell line. Put plainly: CCK8 cell viability assay, MDA-MB-231. It is filed as cell-based, human. As to conditions: MK2.III 1 µM or etoposide 150 µM alone, 24 h. How it is done:
as §1

Assay [5] deals with SW480 colorectal cancer cell line. Put plainly: CCK8 cell viability assay, SW480. It is filed as cell-based, human. As to conditions: etoposide 150 µM alone, 24 h. How it is done:
as §1

For assay [6], the system named is NCI-H69 cells. Put plainly: CCK8-based cell viability assay, NCI-H69. Further details: species or system human. As to conditions: 24 h. The protocol: as §1

Like-named read-outs stand apart in the source and are kept apart here.

Consider `C[S+]([O-])c1ccc(-c2nc(-c3ccncc3)c(-c3ccc(F)cc3)[nH]2)cc1` (stereo not shown) [SB203580], for which, in the assay on NCI-H69 cells [1] (Homo sapiens, NCI-H69, Table 1 dose response, agent alone 0.321 µM (lowest dose), 48 h, read-out: Viable cells (%)), the viability at 0.321 µM was determined as 89%. Besides, the viability at 0.626 µM with NCI-H69 cells [1] (Homo sapiens, NCI-H69, Table 1 dose response, agent alone 0.626 µM, 48 h, read-out: Viable cells (%)) worked out at 89.8%. Besides, the viability at 1.25 µM in the assay on NCI-H69 cells [1] (Homo sapiens, NCI-H69, Table 1 dose response, agent alone 1.25 µM, 48 h, read-out: Viable cells (%)) is 89%. Further, in the assay with NCI-H69 cells [1] (Homo sapiens, NCI-H69, Table 1 dose response, agent alone 2.5 µM, 48 h, read-out: Viable cells (%)), the viability at 2.5 µM stood at 89.4%. For the same compound, the viability at 5 µM in the assay on NCI-H69 cells [1] (Homo sapiens, NCI-H69, Table 1 dose response, agent alone 5.0 µM (highest dose), 48 h, read-out: Viable cells (%)) is 85.1%. Moreover, the “Effect on NCI-H69 cell viability compared to the DMSO control” value in the assay on NCI-H69 cells [1] (inhibitor alone at 2.5 µM) is on record as “did not affect”.
As to `COc1cc([C@@H]2c3cc4c(cc3[C@@H](O[C@@H]3O[C@@H]5CO[C@@H](C)O[C@H]5[C@H](O)[C@H]3O)[C@H]3COC(=O)[C@H]23)OCO4)cc(OC)c1O` [VP-16 (Etoposide), etoposide], in the assay on NCI-H69 xenograft (at any checkpoint, etoposide 12 mg/kg, MK2.III 4 mg/kg, or etoposide + MK2.III 2 mg/kg), the “Difference in tumor size versus control” value is on record as “no significant difference”. Further, the “Tumor Volume (mm^3) median (25th and 75th quartile)” value with NCI-H69 xenograft (day 11 upon treatment, MK2.III 4 mg/kg IP daily) was 556(360;839) mm^3; in the assay with NCI-H69 xenograft (day 18 upon treatment, MK2.III 4 mg/kg IP daily) it was 1219 (995;1387)^*** mm^3; in the assay on NCI-H69 xenograft (day -1 upon treatment (baseline), MK2.III 4 mg/kg IP), 93.5 (66;125) mm^3. In the assay on NCI-H69 cells [2], the “Effect on cell cycle profile, single agent” value was “G2 cell cycle arrest”. Further, the “Decrease of viability by single agent” value in assay [3] is reported as 50%; in assay [5], 65%. The “Effect of single agent on viability” value in assay [4] is on record as “did not affect the viability”. Moreover, the “Percentage of surviving cells” value was 72% in the assay with NCI-H69 cells [6] (etoposide 20 µM) and 36% in the assay with NCI-H69 cells [6] (etoposide 150 µM). Besides, in the assay with NCI-H69 cells [1] (Homo sapiens, NCI-H69, Table 1 dose response, agent alone 10 µM, 48 h, read-out: Viable cells (%)), the viability at 10 µM stood at 75.7%. Moreover, the viability at 20 µM in the assay on NCI-H69 cells [1] (Homo sapiens, NCI-H69, Table 1 dose response, agent alone 20 µM, 48 h, read-out: Viable cells (%)) stood at 76.8%; with NCI-H69 cells [1] (Homo sapiens, NCI-H69, Table 2, VP-16 20 µM, alone or with MK2.III 1.0 µM or SB203580 2.5 µM, read-out: Viable cells (%)) it was 57.3%. The viability at 50 µM in the assay on NCI-H69 cells [1] (Homo sapiens, NCI-H69, Table 1 dose response, agent alone 50 µM, 48 h, read-out: Viable cells (%)) was 65.2%; in the assay on NCI-H69 cells [1] (Homo sapiens, NCI-H69, Table 2, VP-16 50 µM, alone or with MK2.III 1.0 µM or SB203580 2.5 µM, read-out: Viable cells (%)) it was 46.4%. In addition, the viability at 100 µM came out at 61.3% with NCI-H69 cells [1] (Homo sapiens, NCI-H69, Table 1 dose response, agent alone 100 µM, 48 h, read-out: Viable cells (%)) and 45.4% in the assay on NCI-H69 cells [1] (Homo sapiens, NCI-H69, Table 2, VP-16 100 µM, alone or with MK2.III 1.0 µM or SB203580 2.5 µM, read-out: Viable cells (%)). Further, the viability at 150 µM was 55.4% with NCI-H69 cells [1] (Homo sapiens, NCI-H69, Table 1 dose response, agent alone 150 µM, 48 h, read-out: Viable cells (%)) and 37.5% in the assay with NCI-H69 cells [1] (Homo sapiens, NCI-H69, Table 2, VP-16 150 µM, alone or with MK2.III 1.0 µM or SB203580 2.5 µM, read-out: Viable cells (%)).
